In patent publication US8288435B2, “2-aza-bicyclo[3.1.0]hexane derivatives as orexin receptor antagonists” (Actelion Pharmaceuticals Ltd., priority 2006, dated 2012):

Columns and labels:
human orexin-1 receptor = biological target: T1, human orexin-1 receptor (Homo sapiens, UniProt O43613); test: Intracellular calcium measurements (FLIPR), orexin receptor antagonistic activity, OX1; type: cell-based; settings: CHO cells expressing the human orexin-1 receptor, 10 nM orexin-A as agonist
T1 construct: expressed in transfected cells; host or cells: CHO (Chinese hamster ovary) cells, G418 selection
T1 sequence (O43613 1-425): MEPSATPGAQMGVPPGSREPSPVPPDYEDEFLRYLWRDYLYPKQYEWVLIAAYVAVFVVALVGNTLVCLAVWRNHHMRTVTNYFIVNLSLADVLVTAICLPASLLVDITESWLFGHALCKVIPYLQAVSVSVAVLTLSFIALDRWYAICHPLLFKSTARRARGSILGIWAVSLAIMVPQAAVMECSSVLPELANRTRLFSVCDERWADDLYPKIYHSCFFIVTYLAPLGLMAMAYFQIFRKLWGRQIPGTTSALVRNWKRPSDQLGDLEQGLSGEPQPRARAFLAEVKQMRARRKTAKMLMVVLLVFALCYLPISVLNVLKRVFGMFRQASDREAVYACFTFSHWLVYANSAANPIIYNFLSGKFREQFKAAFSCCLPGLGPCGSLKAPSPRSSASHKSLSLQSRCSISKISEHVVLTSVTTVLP
Procedure: (§1) The orexin receptor antagonistic activity of the compounds of formula (I) is determined in accordance with the following experimental method.
(§2) Intracellular Calcium Measurements:
(§3) Chinese hamster ovary (CHO) cells expressing the human orexin-1 receptor and the human orexin-2 receptor, respectively, are grown in culture medium (Ham F-12 with L-Glutamine) containing 300 μg/ml G418, 100 U/ml penicillin, 100 μg/ml streptomycin and 10% inactivated fetal calf serum (FCS). The cells are seeded at 80′000 cells/well into 96-well black clear bottom sterile plates (Costar) which have been precoated with 1% gelatine in Hanks' Balanced Salt Solution (HBSS). All reagents are from Gibco BRL. The seeded plates are incubated overnight at 37° C. in 5% CO2.
(§4) Human orexin-A as an agonist is prepared as 1 mM stock solution in MeOH:water (1:1), diluted in HBSS containing 0.1% bovine serum albumin (BSA) and 2 mM HEPES for use in the assay at a final concentration of 10 nM.
(§5) Antagonists are prepared as 10 mM stock solution in DMSO, then diluted in 96-well plates, first in DMSO, then in HBSS containing 0.1% bovine serum albumin (BSA) and 2 mM HEPES.
(§6) On the day of the assay, 100 μl of loading medium (HBSS containing 1% FCS, 2 mM HEPES, 5 mM probenecid (Sigma) and 3 μM of the fluorescent calcium indicator fluo-3 AM (1 mM stock solution in DMSO with 10% pluronic acid) (Molecular Probes) is added to each well.
(§7) The 96-well plates are incubated for 60 min at 37° C. in 5% CO2. The loading solution is then aspirated and cells are washed 3 times with 200 μl HBSS containing 2.5 mM probenecid, 0.1% BSA, 2 mM HEPES. 100 μl of that same buffer is left in each well.
(§8) Within the Fluorescent Imaging Plate Reader (FLIPR, Molecular Devices), antagonists are added to the plate in a volume of 50 μl, incubated for 20 min and finally 100 μl of agonist is added. Fluorescence is measured for each well at 1 second intervals, and the height of each fluorescence peak is compared to the height of the fluorescence peak induced by 10 nM orexin-A with buffer in place of antagonist. For each antagonist, IC50 value (the concentration of compound needed to inhibit 50% of the agonistic response) is determined.

human orexin-2 receptor = biological target: T2, human orexin-2 receptor (Homo sapiens, UniProt O43614); test: Intracellular calcium measurements (FLIPR), orexin receptor antagonistic activity, OX2; type: cell-based; settings: CHO cells expressing the human orexin-2 receptor, 10 nM orexin-A as agonist
T2 construct: expressed in transfected cells; host or cells: CHO (Chinese hamster ovary) cells, G418 selection
T2 sequence (O43614 1-444): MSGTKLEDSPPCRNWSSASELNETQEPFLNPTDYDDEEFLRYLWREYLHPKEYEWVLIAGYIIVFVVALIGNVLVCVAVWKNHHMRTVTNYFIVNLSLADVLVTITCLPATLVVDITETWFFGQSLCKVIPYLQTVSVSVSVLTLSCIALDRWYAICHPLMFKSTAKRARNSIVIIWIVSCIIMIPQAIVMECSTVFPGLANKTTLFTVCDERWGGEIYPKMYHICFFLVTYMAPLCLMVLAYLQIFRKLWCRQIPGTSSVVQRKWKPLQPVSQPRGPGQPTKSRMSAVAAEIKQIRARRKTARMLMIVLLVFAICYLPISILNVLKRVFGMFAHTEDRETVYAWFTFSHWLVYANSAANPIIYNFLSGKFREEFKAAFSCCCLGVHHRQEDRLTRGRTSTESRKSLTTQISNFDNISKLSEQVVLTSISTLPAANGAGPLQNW
Procedure: as §1, §2, §3, §4, §5, §6, §7, §8

Row | SMILES | IC50 (human orexin-1 receptor) [nM] | IC50 (human orexin-2 receptor) [nM]
1 | O=C(NC[C@@H]1C[C@@H]2C[C@@H]2N1C(=O)c1ccccc1-c1cccc(Cl)c1)c1cccc2occc12 [Example 8, benzofuran-4-carboxylic acid [(1S,3S,5S)-2-(3′-chloro-biphenyl-2-carbonyl)-2-aza-bicyclo[3.1.0]hex-3-ylmethyl]-amide] | 45 | 78
2 | Cc1cccc(-c2sc(C)nc2C(=O)N2[C@H](CNC(=O)c3cccc4c3OCCN4C)C[C@@H]3C[C@@H]32)c1 [Example 130, 4-Methyl-3,4-dihydro-2H-benzo[1,4]oxazine-8-carboxylic acid [(1S,3S,5S)-2-(2-methyl-5-m-tolyl-thiazole-4-carbonyl)-2-aza-bicyclo[3.1.0]hex-3-ylmethyl]-amide] | 76 | 129
3 | Cc1cccc(-c2sc(N)nc2C(=O)N2[C@H](CNC(=O)c3cccc4cccnc34)C[C@@H]3C[C@@H]32)c1 [Example 176, Quinoline-8-carboxylic acid [(1S,3S,5S)-2-(2-amino-5-m-tolyl-thiazole-4-carbonyl)-2-aza-bicyclo[3.1.0]hex-3-ylmethyl]-amide] | 45 | 57
4 | Nc1nc(C(=O)N2[C@H](CNC(=O)c3cccc4c3OCCO4)C[C@@H]3C[C@@H]32)c(-c2cccc(F)c2)s1 [Example 25, 2,3-dihydro-benzo[1,4]dioxine-5-carboxylic acid {(1S,3S,5S)-2-[2-amino-5-(3-fluoro-phenyl)-thiazole-4-carbonyl]-2-aza-bicyclo[3.1.0]hex-3-ylmethyl}-amide] | 80 | 14
5 | Cc1nc(C(=O)N2[C@H](CNC(=O)c3noc4ccccc34)C[C@@H]3C[C@@H]32)c(-c2cccc(Cl)c2)s1 [Example 147, Benzo[d]isoxazole-3-carboxylic acid {(1S,3S,5S)-2-[5-(3-chloro-phenyl)-2-methyl-thiazole-4-carbonyl]-2-aza-bicyclo[3.1.0]hex-3-ylmethyl}-amide] | 51 | 74
6 | CCc1cnc(NC[C@@H]2C[C@@H]3C[C@@H]3N2C(=O)c2nc(C)sc2-c2cccc(C)c2)nc1 [Example 277, {(1S,3S,5S)-3-[(5-Ethyl-pyrimidin-2-ylamino)-methyl]-2-aza-bicyclo[3.1.0]hex-2-yl}-(2-methyl-5-m-tolyl-thiazol-4-yl)-methanone] | 42 | 154
7 | Cc1nc(C(=O)N2[C@H](CNC(=O)c3cccc4c3CCO4)C[C@@H]3C[C@@H]32)c(-c2cccc(F)c2C)s1 [Example 199, 2,3-Dihydro-benzofuran-4-carboxylic acid {(1S,3S,5S)-2-[5-(3-fluoro-2-methyl-phenyl)-2-methyl-thiazole-4-carbonyl]-2-aza-bicyclo[3.1.0]hex-3-ylmethyl}-amide] | 139 | 41
8 | Cc1cccc(-c2sc(C)nc2C(=O)N2[C@H](CNC(=O)c3ccc4ccccc4n3)C[C@@H]3C[C@@H]32)c1 [Example 93, Quinoline-2-carboxylic acid [(1S,3S,5S)-2-(2-methyl-5-m-tolyl-thiazole-4-carbonyl)-2-aza-bicyclo[3.1.0]hex-3-ylmethyl]-amide] | 14 | 40
9 | Cc1nc(C(=O)N2[C@H](CNC(=O)c3cccc4cccnc34)C[C@@H]3C[C@@H]32)c(-c2ccccc2)s1 [Example 230, Quinoline-8-carboxylic acid [(1S,3S,5S)-2-(2-methyl-5-phenyl-thiazole-4-carbonyl)-2-aza-bicyclo[3.1.0]hex-3-ylmethyl]-amide] | 13 | 100
10 | Cc1nc(C(=O)N2[C@H](CNc3ncc(Br)cn3)C[C@@H]3C[C@@H]32)c(-c2ccc(F)c(F)c2)s1 [Example 259, {(1S,3S,5S)-3-[(5-Bromo-pyrimidin-2-ylamino)-methyl]-2-aza-bicyclo[3.1.0]hex-2-yl}-[5-(3,4-difluoro-phenyl)-2-methyl-thiazol-4-yl]-methanone] | 62 | 145
11 | Cc1nc2sccn2c1C(=O)NC[C@@H]1C[C@@H]2C[C@@H]2N1C(=O)c1ccccc1-c1cccc(Cl)c1 [Example 17, 6-methyl-imidazo[2,1-b]thiazole-5-carboxylic acid [(1S,3S,5S)-2-(3′-chloro-biphenyl-2-carbonyl)-2-aza-bicyclo[3.1.0]hex-3-ylmethyl]-amide] | 15 | 60
12 | Cc1nc(C(=O)N2[C@H](CNC(=O)c3cccc4c3CCO4)C[C@@H]3C[C@@H]32)c(-c2ccc(Br)cc2)s1 [Example 192, 2,3-Dihydro-benzofuran-4-carboxylic acid {(1S,3S,5S)-2-[5-(4-bromo-phenyl)-2-methyl-thiazole-4-carbonyl]-2-aza-bicyclo[3.1.0]hex-3-ylmethyl}-amide] | 110 | 35
13 | Cc1cc(C)cc(-c2sc(C)nc2C(=O)N2[C@H](CNc3ncc(Br)cn3)C[C@@H]3C[C@@H]32)c1 [Example 255, {(1S,3S,5S)-3-[(5-Bromo-pyrimidin-2-ylamino)-methyl]-2-aza-bicyclo[3.1.0]hex-2-yl}-[5-(3,5-dimethyl-phenyl)-2-methyl-thiazol-4-yl]-methanone] | 37 | 291
14 | O=C(NC[C@@H]1C[C@@H]2C[C@@H]2N1C(=O)c1nc(C2CC2)sc1-c1ccccc1F)c1cccc2c1CCO2 [Example 208, 2,3-Dihydro-benzofuran-4-carboxylic acid {(1S,3S,5S)-2-[2-cyclopropyl-5-(2-fluoro-phenyl)-thiazole-4-carbonyl]-2-aza-bicyclo[3.1.0]hex-3-ylmethyl}-amide] | 58 | 34
15 | Cc1nc(C(=O)N2[C@H](CNC(=O)c3nccc4ccccc34)C[C@@H]3C[C@@H]32)c(-c2cccc(F)c2)s1 [Example 38, isoquinoline-1-carboxylic acid {(1S,3S,5S)-2-[5-(3-fluoro-phenyl)-2-methyl-thiazole-4-carbonyl]-2-aza-bicyclo[3.1.0]hex-3-ylmethyl}-amide] | 104 | 358
16 | Cc1nc2sccn2c1C(=O)NC[C@@H]1C[C@@H]2C[C@@H]2N1C(=O)c1nc(N(C)C)sc1-c1ccccc1 [Example 246, 6-Methyl-imidazo[2,1-b]thiazole-5-carboxylic acid [(1S,3S,5S)-2-(2-dimethylamino-5-phenyl-thiazole-4-carbonyl)-2-aza-bicyclo[3.1.0]hex-3-ylmethyl]-amide] | 20 | 44
17 | O=C(NC[C@@H]1C[C@@H]2C[C@@H]2N1C(=O)c1ncsc1-c1cccc(Cl)c1)c1cccc2c1CCO2 [Example 212, 2,3-Dihydro-benzofuran-4-carboxylic acid {(1S,3S,5S)-2-[5-(3-chloro-phenyl)-thiazole-4-carbonyl]-2-aza-bicyclo[3.1.0]hex-3-ylmethyl}-amide] | 109 | 102
18 | Nc1nc(C(=O)N2[C@H](CNC(=O)c3cnc4sccn34)C[C@@H]3C[C@@H]32)c(-c2cccc(F)c2)s1 [Example 57, imidazo[2,1-b]thiazole-5-carboxylic acid {(1S,3S,5S)-2-[2-amino-5-(3-fluoro-phenyl)-thiazole-4-carbonyl]-2-aza-bicyclo[3.1.0]hex-3-ylmethyl}-amide] | 12 | 11
